From patent US20260226055A1, “PYRAZOLE DERIVATIVES AS PHD INHIBITORS” (Oxford University Innovation Limited, priority 2023, published 2026) come the findings set out here.

Like-named read-outs stand apart in the source and are kept apart here.

For series [1], the target named is PHD2 (Homo sapiens, UniProt Q9GZT9). Kind of series: PHD2 RF-MS hydroxylation assay. The class given is biochemical. The protocol: In brief, cDNA encoding for the catalytic domain of tPHD2 (181-426 residues) was cloned into the pET28a(+)/pET24a(+) vectors (Novagen), to enable production of tPHD2 (residues 181-426) protein with/without an N-terminal His6-tag. The tPHD2 (residues 181-426) encoding construct was transformed into the Escherichia coli BL21 DE3 cell line; protein production was induced with 0.5 mM […] (3-5 hr at 28° C.). […] The protein was exchanged into 50 mM Tris-HCl buffer (pH 7.5) and concentrated to % 40 mg/ml.
Tris(hydroxymethyl)aminomethane was from Fisher. […] All inhibition assays were carried out in 384-well polypropylene plates (Greiner Bio-One). […] PHD2 protein was prepared at a concentration of 300 nM in assay buffer and 25 μl dispensed across each 384-well assay plate. […] After loading the C4 SPE was washed with 0.1% formic acid in water to remove non-volatile buffer salts and then peptide was eluted from the SPE with 85% acetonitrile, 15% water containing 0.1% formic acid onto the mass spectrometer. Peptide charge states were monitored in positive mode. […] IC50 values were determined from non-linear regression plots using GraphPad prism.
SAR studies for PHD2 inhibition were carried out on the compounds of the invention. Compounds were screened against PHD2 using the RF-MS hydroxylation assay.

Series [2] has as its system HIF1-α in Hep3B cells. The experiment in a line: Immunoblots of Hep3B cells (HIF1-α protein levels). The class given is cell-based. Also on record: dose or concentration left out as unconfirmed. The settings on record: 3 hours. As for the experimental part:
Cells were grown to 90% confluency.
Hep3B cells were treated with compounds 117, 119, 122 and 123 of the invention (Examples 93, 95, 98 and 99) at 100 µM (A) and 20 µM (B) PHD inhibitors for 3 hours.
Background: A western blot detects proteins with antibodies after separation by electrophoresis.

The nature of series [3]: In vivo blood counts in C57BL/6 mice. The conditions noted are these: twice daily IP, 8 days.
Description: (§1) Values are shown pre-treatment, and 4 and 8 days after treatment.
(§2) Blood samples were taken either pre-treatment, on the 4th day into treatment or on the 8th day of treatment. Blood samples were analysed using Celltac Alpha MEK-6500K.
(§3) Samples were taken either pre-treatment, on the 4th day into treatment or on the 8th day of treatment. Blood samples were analysed using Celltac Alpha MEK-6500K.
For series [4] the following is noted: mouse, in vivo, ip.
Description: as §1, §2, §3

PHD2, sequence (Q9GZT9 181-426): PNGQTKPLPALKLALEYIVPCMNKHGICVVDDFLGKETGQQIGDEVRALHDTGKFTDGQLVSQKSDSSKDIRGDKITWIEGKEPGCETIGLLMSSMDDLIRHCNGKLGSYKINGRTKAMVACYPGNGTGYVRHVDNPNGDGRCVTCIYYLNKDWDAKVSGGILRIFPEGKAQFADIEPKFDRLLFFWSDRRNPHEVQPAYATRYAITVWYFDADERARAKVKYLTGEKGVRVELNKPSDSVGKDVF

On to `O=C(Nc1ccc(-c2ccccc2)cc1)c1cnn(-c2cc(O)ccn2)c1` [Compound 108], for which the half-inhibitory concentration (IC50) in series [1] was more than 10 µM.

In the case of `Cc1cc2nc(C)c3c(O)c(C(=O)NCc4ccc(-c5ccccc5)cc4)cnc3n2n1` [Compound 122, N-([1,1′-Biphenyl]-4-ylmethyl)-6-hydroxy-2,5-dimethylpyrazolo[1,5-a]pyrido[3,2-e]pyrimidine-7-carboxamide], the “HIF-1α stabilisation (immunoblot)” value in series [2] was “stabilise HIF-1α”.

As for `N#Cc1ccc(-n2cc(C(=O)NCc3ccc(-c4ccccc4)cc3)cn2)nc1` [Compound 97], the 50% inhibitory concentration (IC50) in series [1] is more than 10 µM.

In the case of `O=C(NCc1ccc(-c2ccccc2)cc1)c1cnc2c(cnc3ccnn32)c1O` [Compound 117, N-([1,1′-Biphenyl]-4-ylmethyl)-6-hydroxypyrazolo[1,5-a]pyrido[3,2-e]pyrimidine-7-carboxamide], the “HIF-1α stabilisation (immunoblot)” value in series [2] is “stabilise HIF-1α”.

With `Cc1cc2nc(C)c3c(O)c(C(=O)NCc4ccc(C(F)(F)F)cc4)cnc3n2n1` [Compound 123, 6-Hydroxy-2,5-Dimethyl-N-(4-(trifluoromethyl)benzyl)pyrazolo[1,5-a]pyrido[3,2-e]pyrimidine-7-carboxamide], the “HIF-1α stabilisation (immunoblot)” value in series [2] is “stabilise HIF-1α”.

With `O=C(NCC1CCCCC1)c1cnc(-n2cccn2)cc1O` [Compound 44, N-(Cyclohexylmethyl)-4-hydroxy-6-(1H-pyrazol-1-yl)nicotinamide], the half-maximal inhibitory concentration (IC50) in series [1] was more than 10 µM.

As for `O=C(Nc1ccc(-c2ccccc2)cc1)c1cnc2c(cnc3ccnn32)c1O` [Compound 119, N-([1,1′-Biphenyl]-4-yl)-6-hydroxypyrazolo[1,5-a]pyrido[3,2-e]pyrimidine-7-carboxamide], the “HIF-1α stabilisation (immunoblot)” value in series [2] is on record as “stabilise HIF-1α”.

As to `COc1cc(-n2cc(C(=O)NCc3ccc(-c4ccccc4)cc3)cn2)ncc1C#N` [Compound 93], the IC50 in series [1] was more than 10 µM.

In series [1], `O=C(NCc1ccc(-c2ccccc2)cc1)c1ccc(-n2cccn2)nc1` [Compound 22, N-([1,1′-Biphenyl]-4-ylmethyl)-6-(1H-pyrazol-1-yl)nicotinamide] gave a 50% inhibitory concentration (IC50) of more than 10 µM.

In series [1], `O=C(O)c1ccnc(-n2cc(C(=O)NCc3ccc(-c4ccccc4)cc3)cn2)c1` [Compound 103] returned a concentration for half-maximal inhibition (IC50) of more than 10 µM.

In the case of `O=C(O)CNC(=O)C1C(=O)N(C2CCCCC2)C(=O)N(C2CCCCC2)C1=O` [Daprodustat], the adverse effects entry in series [3] is given as “no adverse effects”.

Consider `O=C(NCC1CCC(C(F)(F)F)CC1)c1cnc(-n2cccn2)cc1O` (centres unmarked) [Compound 68, 4-Hydroxy-6-(1H-pyrazol-1-yl)-N-((4-(trifluoromethyl)cyclohexyl)methyl)nicotinamide], for which the adverse effects result in series [4] is recorded as “no adverse effects”.

In the case of `O=C(NCc1ccc(-c2ccccc2)cc1)c1ccc(-n2cccn2)cc1O` [Compound 16, N-([1,1′-biphenyl]-4-ylmethyl)-2-hydroxy-4-(1H-pyrazol-1-yl)benzamide], the concentration for half-maximal inhibition (IC50) in series [1] was more than 10 µM.

`O=C(NCc1ccc(-c2ccccc2)cc1)c1cnc(-n2cccn2)nc1` [Compound 20, N-([1,1′-Biphenyl]-4-ylmethyl)-2-(1H-pyrazol-1-yl)pyrimidine-5-carboxamide] displayed a half-inhibitory concentration (IC50) in series [1] of more than 10 µM.

One may read the IC50 as the point on the concentration scale where inhibition reaches its midpoint.
